Results as given in PubChem BioAssay (NCI).
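96-well plates; 48 h exposure; 5 concentrations. Endpoints by linear interpolation between flanking doses. Not reached: highest tested concentration assigned. TGI marks complete inhibition of growth.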 Where a SMILES comes first, the peptide text is derived from it. [ ]: non-standard residue; d: D form. The star is where a group is joined. hSer = N[CH](CCO)C(=O)O; Boc = CC(C)(C)OC(=O)*

Assays:
Assay in all cases: growth of human tumour cells (NCI), 48 h
UO-31 renal = test system: UO-31 renal
SK-OV-3 ovarian = test system: SK-OV-3 ovarian
NCI-H23 lung = test system: NCI-H23 lung
SF-295 CNS = test system: SF-295 CNS
COLO 205 colon = test system: COLO 205 colon
MCF7 breast = test system: MCF7 breast
HCC-2998 colon = test system: HCC-2998 colon
DU-145 prostate = test system: DU-145 prostate
IGROV1 ovarian = test system: IGROV1 ovarian
CAKI-1 renal = test system: CAKI-1 renal

| SMILES | TGI (UO-31 renal) [µM] | TGI (SK-OV-3 ovarian) [µM] | TGI (NCI-H23 lung) [µM] | TGI (SF-295 CNS) [µM] | TGI (COLO 205 colon) [µM] | TGI (MCF7 breast) [µM] | TGI (HCC-2998 colon) [µM] | TGI (DU-145 prostate) [µM] | TGI (IGROV1 ovarian) [µM] | TGI (CAKI-1 renal) [µM] |
| --- | --- | --- | --- | --- | --- | --- | --- | --- | --- | --- |
| On1c(-c2ccccc2)c(-c2c(-c3ccccc3)n(O)c3ccccc23)c2ccccc21 | 53 | 80.6 | 90.1 | 61.9 |  |  |  |  |  |  |
| COC(=O)OC[C@H]1O[C@@H](n2cc(C)c(=O)[nH]c2=O)CC1OC(=O)OC (some centres not stated) | > 100 | > 100 | > 100 | > 100 | > 100 | > 100 | > 100 | > 100 | > 100 |  |
| COC(=O)/C(=C/c1ccc(OC)cc1)C(C(=O)O)=C(C)C | > 100 | > 100 | > 100 | > 100 | > 100 |  | > 100 |  | > 100 | > 100 |
| COc1ccc2nc3ccc(OC)cc3c(S(=O)Cc3ccc([N+](=O)[O-])cc3)c2c1 (configuration not stated) | 12.9 | 40.1 | 25.1 | 41.8 | 15.9 | 4.26 | 34 | 6.59 | 11.1 | 28.6 |
| CN(C)[C@@H]1C(=O)C(C(N)=O)=C(O)[C@@]2(O)C(=O)C3=C(O)c4c(O)cccc4C[C@H]3C[C@@H]12 | 4.08 | 3.96 | 4.27 | 3.22 | 3.25 |  |  |  | 4.8 | 4.3 |
| c1ccc(COc2ccc(C[P+](c3ccccc3)(c3ccccc3)c3ccccc3)cc2)cc1 | 11 | 3.42 | 1.36 | 2.97 | 3.26 | 1.52 | 4.81 | 12.9 | 12.3 | 20.2 |
| O=C(C=P(c1ccccc1)(c1ccccc1)c1ccccc1)C12CC3CC(CC(C3)C1)C2 | 27.7 |  | 33.2 |  | 28.7 | 35.8 | 32.1 | 39.3 | 30.8 | 33.6 |
| CSc1nc2c(c(N(C)C)n1)C=Nn1c(nc3ccccc31)S2 | > 100 | > 100 | > 100 | > 100 | > 100 |  | > 100 | > 100 | > 100 | > 100 |
| COc1ccc(C[C@@H]2CN(C(=O)c3ccccc3)[C@H](Cc3ccc(O)cc3)CN2C(=O)c2ccccc2)cc1Br | > 100 | > 100 | > 100 | > 100 | > 100 | > 100 | > 100 | > 100 | > 100 | > 100 |
| CCOC(=O)CC(C)C(C#N)(OP1(=O)OC(c2ccccc2)C(C)N1C)c1ccccc1 (configuration not stated) | > 100 | > 100 | > 100 | > 100 | 36.6 | > 100 | > 100 | > 100 | > 100 | > 100 |
| Cc1c(C)c(C)c(-n2c(=O)n(C)c(=O)n2C(C)(C)C)c(C)c1C | > 100 | > 100 | > 100 | > 100 | > 100 | > 100 | > 100 | > 100 |  | > 100 |
| O=c1[nH]cnc2c1nnn2CCCn1nnc2c(=O)[nH]cnc21 | > 100 | > 100 | > 100 | > 100 | > 100 |  | > 100 |  | > 100 | > 100 |
| CC1C(c2ccc(N(C)C)cc2)c2cc3c(cc2OC1N1CCCC1)OCO3 (configuration not stated) | > 100 |  | > 100 | > 94.8 | > 100 | > 31.6 | > 100 | > 100 | > 100 | > 100 |
| CCOC(=O)NNC(=O)NCCNC(=O)NNC(=O)OCC | > 100 | > 100 | > 100 |  | > 100 | > 100 | > 100 | > 100 |  | > 100 |
| COc1c2cc(C(C)(C)C)cc1CSCc1cc(C(C)(C)C)cc(c1OC)CCCCC2 | > 50 | > 50 | > 50 | > 50 | > 50 | > 50 | > 50 | > 50 | > 50 |  |
| CCOC(=O)C1NCCc2c1[nH]c1ccccc21 (configuration not stated) |  | > 10 | > 10 | > 10 | > 10 | > 10 | > 10 | > 10 | > 10 | > 10 |
| CN1CC(c2ccccc2)=Cc2c1ccc(N)c2N=N | > 100 | > 100 | > 100 | > 100 |  | > 100 | > 100 |  | > 100 | 67.9 |
| COCCC(NC(=O)C(CC(C)C)NC(=O)OC(C)(C)C)C(N)=O (stereo not drawn) (Boc-Leu-[hSer](Me)-NH2; configuration not given here) | > 100 | > 100 |  | > 100 | > 100 | > 100 | > 100 | > 100 | > 100 | > 100 |
| COc1ccc(NC(=S)NN=C(C)c2cccc(C(C)=NNC(=S)Nc3ccc(OC)cc3)n2)cc1 | > 100 | > 100 | > 100 | > 100 | > 100 |  | > 100 | > 100 | > 100 | > 100 |
| OCC(O)COc1ccc(Br)cc1 (configuration not stated) | > 100 | > 100 | > 100 | > 100 | > 100 |  | > 100 |  | > 100 | > 100 |
| COc1cc2c(cc1OC)C(=O)N(c1ccc(O)cc1)C2 |  | > 100 | > 100 | > 100 | > 100 |  | > 100 | > 100 | > 100 | > 100 |
| COc1ccc(C2CC(c3cc4c(C)c(C(=O)c5ccccc5)oc4cc3O)=Nc3ccccc3S2)cc1OC (configuration not stated) | > 100 |  | > 100 | > 100 | > 100 | > 100 | > 100 | > 100 | > 100 | > 100 |
| CN(NC(=O)c1ccco1)C1=NCCCCN1 | > 100 | > 100 | > 100 | > 100 | > 100 | > 100 | > 100 | > 100 | > 100 |  |
